According to US5712300A, “Hydroxamic acid derivatives useful for the treatment of diseases related to connective tissue degradation” (priority 1997, dated 1998):
Where a name gives a salt, the structure may show the parent alone.

Assays:
Type in all cases: biochemical
Collagenase = biological target: T1, Collagenase (Homo sapiens, UniProt P03956); test: MMP inhibition by particle concentration fluorescence technique (collagenase); details: pH 7.5; 15 min enzyme preincubation; substrate 1-3 h at room temperature; read-out: MMP Inhibition Constants, Collagenase Ki
T1 sequence (P03956 100-469): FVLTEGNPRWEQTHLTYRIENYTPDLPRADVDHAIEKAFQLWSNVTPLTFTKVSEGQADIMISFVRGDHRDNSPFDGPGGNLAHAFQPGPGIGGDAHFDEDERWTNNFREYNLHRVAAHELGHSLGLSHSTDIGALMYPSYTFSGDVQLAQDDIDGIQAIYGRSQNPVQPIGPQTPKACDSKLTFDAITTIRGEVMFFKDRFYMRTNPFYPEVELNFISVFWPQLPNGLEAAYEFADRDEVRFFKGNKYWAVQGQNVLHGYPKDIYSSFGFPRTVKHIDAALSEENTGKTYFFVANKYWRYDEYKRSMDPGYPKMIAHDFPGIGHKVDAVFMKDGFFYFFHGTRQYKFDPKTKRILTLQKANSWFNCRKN
Description: Inhibitory activity is evaluated in one or more of the MMP enzymes (stromelysin, gelatinase, and collagenase) in vitro using a particle concentration fluorescence techniques. An inhibitor binds to MMP enzymes prevents the degradation of a substrate of stromelysin, gelatinase, or collagenase. The substrate is attached with a fluorescein and a biotin. The intact substrate then binds to an avidin-coated particle via the biotin moiety. Once the particle is washed and dried, a fluorescent signal is generated since the fluorescent group is attached to the particle. Without an inhibitor present, the substrate is degraded by MMP enzymes and the fluorescein group is removed, therefore, no fluorescent signal can be detected. Testing compounds are dissolved in DMSO to the desired concentration, then the solutions are diluted to 1:5 with MMP buffer (50 mM Tris-HCl, pH 7.5; 150 mM NaCl; 0.02% NAN3). Serial two-fold dilutions of each compound are prepared. A concentrated, activated enzyme solution is transferred into each plate of the testing compounds, and the mixture is incubated at room temperature for 15 minutes. Thawed MMP substrate is then added into all plates, and the plates are incubate in the dark for 1-3 hours at room temperature. At this point, the substrate mixture is reacted with 0.1% avidin-coated polystyrene particles.

Stromelysin = Stromelysin (Homo sapiens, UniProt P08254); test: MMP inhibition by particle concentration fluorescence technique (stromelysin); details: pH 7.5; 15 min enzyme preincubation; substrate 1-3 h at room temperature; read-out: MMP Inhibition Constants, Stromelysin Ki
How it was run: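 Fluorescein- and biotin-labelled substrate captured on avidin particles after reaction; intact, uncleaved substrate retains fluorescence, so signal rises with inhibition. Activated enzyme incubated with two-fold serial compound dilutions 15 minutes at room temperature.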

Gelatinase = test: MMP inhibition by particle concentration fluorescence technique (gelatinase); details: pH 7.5; 15 min enzyme preincubation; substrate 1-3 h at room temperature; read-out: MMP Inhibition Constants, Gelatinase Ki
How it was run: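 Compound serially diluted two-fold in 50 mM Tris-HCl pH 7.5, 150 mM NaCl, preincubated 15 min with activated enzyme at room temperature. Fluorescein/biotin-tagged substrate then added for 1-3 hours in the dark. Intact substrate captured on avidin-coated particles; fluorescence signal indicates inhibition.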

Sequence of Stromelysin (P08254 100-477): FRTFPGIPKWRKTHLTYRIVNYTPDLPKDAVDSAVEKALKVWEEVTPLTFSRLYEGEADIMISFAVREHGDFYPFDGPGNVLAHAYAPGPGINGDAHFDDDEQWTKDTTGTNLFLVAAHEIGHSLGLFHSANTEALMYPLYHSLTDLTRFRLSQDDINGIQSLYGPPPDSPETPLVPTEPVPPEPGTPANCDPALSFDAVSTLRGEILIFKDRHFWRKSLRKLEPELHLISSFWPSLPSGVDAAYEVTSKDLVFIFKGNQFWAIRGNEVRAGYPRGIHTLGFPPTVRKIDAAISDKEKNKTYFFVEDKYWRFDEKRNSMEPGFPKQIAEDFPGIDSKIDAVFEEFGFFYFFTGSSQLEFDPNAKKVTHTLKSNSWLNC

SMILES | Ki (Collagenase) [nM] | Ki (Stromelysin) [nM] | Ki (Gelatinase) [nM]
O=C(NCC[C@@H](C(=O)NO)[C@]1(CCCO)CCN(CCc2ccccc2)C1=O)c1ccc(F)c(F)c1 (relative stereo) [Example 94, α-[2-[(3,4-Difluorobenzoyl)amino]ethyl]-N-hydroxy-3-(3-hydroxypropyl)-2-oxo-1-(2-phenylethyl)-3-pyrrolidineacetamide] | 13.4 | 16 | 1.2
O=C(NCC[C@@H](C(=O)NO)[C@]1(CCO)CCN(CCc2ccccc2)C1=O)c1ccc(F)c(F)c1 (relative stereo) [Example 95, α-[2-[(3,4-Difluorobenzoyl)amino]ethyl]-N-hydroxy-3-(2-hydroxyethyl)-2-oxo-1-(2-phenylethyl)-3-pyrrolidineacetamide] | 25 | 119 | 13
CC(C)CC1(CC(=O)NO)CCN(CCc2ccccc2)C1=O (stereo not drawn) [Example 1, N-Hydroxy-3-(2-methylpropyl)-2-oxo-1-(2-phenylethyl)-3-pyrrolidineacetamide] | 2300 | 27200 | 3550
CC(C)C[C@@]1(CC(=O)NO)CCN(CCc2ccccc2)C1=O [Example 2, (3S)-N-Hydroxy-3-(2-methylpropyl)-2-oxo-1-(2-phenylethyl)-3-pyrrolidineacetamide] | 1040 | 20200 | 3290
CC(C)CC1(C(C)C(=O)NO)CCN(CCc2ccccc2)C1=O (stereo not drawn) [Example 3, N-Hydroxy-α-methyl-3-(2-methylpropyl)-2-oxo-1-(2-phenylethyl)-3-pyrrolidineacetamide] | 4230 | 10900 | 11700
CNC(=O)CN1CCC(CC(=O)NO)(CC(C)C)C1=O (stereo not drawn) [Example 20, N^3 -Hydroxy-N^1-methyl-3-(2-methylpropyl)-2-oxo-1,3-pyrrolidinediacetamide] | 579 | 16600 | 3100
CNC(=O)C(Cc1ccccc1)N1CCC(CC(=O)NO)(CC(C)C)C1=O (stereo not drawn) [Example 21, N^3 -Hydroxy-N^1-methyl-3-(2-methylpropyl)-2-oxo-α^1-(phenylmethyl)-1,3-pyrrolidinediacetamide] | 22 | 2080 | 49
CC(C)CC1(CC(=O)NO)CCN(Cc2ccccc2)C1=O (stereo not drawn) [Example 23, N-Hydroxy-3-(2-methylpropyl)-2-oxo-1-(phenylmethyl)-3-pyrrolidineacetamide] | 453 | 4190 | 1560
CNC(=O)[C@H](Cc1ccccc1)N1CC[C@](CC(=O)NO)(CC(C)C)C1=O [Example 30, [S-(R*,R*)]-N^3 -Hydroxy-N^1-methyl-3-(2-methylpropyl)-2-oxo-α^1-(phenylmethyl)-1,3-pyrrolidinediacetamide] | 16 | 1050 | 24
CC(C)C[C@@]1(CC(=O)NO)CCN([C@@H](Cc2ccccc2)C(=O)NCCc2ccccc2)C1=O [Example 31, [S-(R*,R*)]-N^3 -Hydroxy-3-(2-methylpropyl)-2-oxo-N^1-(2-phenethyl)-α^1-(phenylmethyl)-1,3-pyrrolidinediacetamide] | 96 | 517 | 19.3
CNC(=O)[C@H](CC(C)C)N1CC[C@](CC(=O)NO)(CC(C)C)C1=O [Example 32, [S-(R*,R*)]-N^3 -Hydroxy-N^1-methyl-α^1,3-bis(2-methylpropyl)-2-oxo-1,3-pyrrolidinediacetamide] | 36 | 730 | 50
CNC(=O)[C@H](Cc1ccccc1)N1CC[C@@](CCC(C)C)(CC(=O)NO)C1=O [Example 34, [S-(R*,R*)]-N^3 -Hydroxy-N^1-methyl-3-(3-methylbutyl)-2-oxo-α^1-(phenylmethyl)-1,3-pyrrolidinediacetamide] | 22 | 4140 | 31
CC(C)CC1(CC(=O)NO)CNN(CCc2ccccc2)C1=O (stereo not drawn) [Example 38, N-Hydroxyl-4-(2-methylpropyl)-5-oxo-1-(2-phenylethyl)-4-pyrazolidineacetamide monohydrochloride] | 13300 | 31200 | 14500
CC(C)C[C@@]1(CC(=O)NO)CCN([C@@H](Cc2ccccc2)C(=O)Nc2ccccc2)C1=O [Example 39, [S-(R*,R*)]-N^3 -Hydroxy-3-(2-methylpropyl)-2-oxo-N^1-phenyl-α^1-(phenylmethyl)-1,3-pyrrolidinediacetamide] | 5.81 | 101 | 75.9
CC(C)C[C@@]1(CC(=O)NO)CCN([C@@H](Cc2ccccc2)C(=O)NCc2ccccn2)C1=O [Example 40, [S-(R*,R*)]-N^3 -Hydroxy-3-(2-methylpropyl)-2-oxo-α^1-(phenylmethyl)-N^1-(2-pyridinylmethyl)-1,3-pyrrolidinediacetamide] | 37 | 1990 | 10.5
CC(C)C[C@@]1(CC(=O)NO)CCN([C@@H](Cc2ccccc2)C(=O)Nc2ccncc2)C1=O [Example 41, [S-(R*,R*)]-N^3 -Hydroxy-3-(2-methylpropyl)-2-oxo-α^1-(phenylmethyl)-N^1-(4-pyridinyl)-1,3-pyrrolidinediacetamide] | 2.8 | 14 | 2.3
CC(C)C[C@@]1(CC(=O)NO)CCN([C@@H](Cc2ccccc2)C(=O)Nc2ccc(F)cc2)C1=O [Example 42, [S-(R*,R*)]-N^1-(4-Fluorophenyl)-N^3-hydroxy-3-(2-methylpropyl)-2-oxo-α^1-(phenylmethyl)-1,3-pyrrolidinediacetamide] | 2.44 | 25.5 | 5.4
CC(C)C[C@@]1(CC(=O)NO)CCN([C@@H](Cc2ccccc2)C(=O)NC2CCN(Cc3ccccc3)CC2)C1=O [Example 43, [S-(R*,R*)]-N^3 -Hydroxy-3-(2-methylpropyl)-2-oxo-α^1-(phenylmethyl)-N^1-[1-(phenylmethyl)-4-piperdinyl]-1,3-pyrrolidinediacetamide] | 2.36 | 1800 | 2.3
CC(C)C[C@@]1(CC(=O)NO)CCN([C@@H](Cc2ccccc2)C(=O)NC2CCNCC2)C1=O [Example 44, [S-(R*,R*)]-N^3 -Hydroxy-3-(2-methylpropyl)-2-oxo-α^1-(phenylmethyl)-N^1-(4-piperdinyl)-1,3-pyrrolidinediacetamide] | 20.2 | 4000 | 11
CC(C)C[C@@]1(CC(=O)NO)CCN([C@@H](Cc2ccccc2)C(=O)NCc2ccncc2)C1=O [Example 45, [S-(R*,R*)]-N^3 -Hydroxy-3-(2-methylpropyl)-2-oxo-α^1-(phenylmethyl)-N^1-(4-pyridinylmethyl)-1,3-pyrrolidinediacetamide] | 23.5 | 1010 | 17
CC(C)C[C@@]1(CC(=O)NO)CCN([C@@H](Cc2ccccc2)C(=O)NCc2ccc(F)cc2)C1=O [Example 46, [S-(R*,R*)]-N^1-(4-Fluorophenylmethyl)-N^3-hydroxy-3-(2-methylpropyl)-2-oxo-α^1-(phenylmethyl)-1,3-pyrrolidinediacetamide] | 35 | 2100 | 40
CNC(=O)[C@H](CCc1ccccc1)N1CC[C@](CC(=O)NO)(CC(C)C)C1=O [Example 47, [S-(R*,R*)]-N^3 -Hydroxy-N^1-methyl-3-(2-methylpropyl)-2-oxo-α^1-(2-phenylethyl)-1,3-pyrrolidinediacetamide] | 81.5 | 868 | 85.3
